Results on nine compounds are retold here after patent US20050209278A1, “Piperidinyl- and piperazinyl-sulfonylmethyl hydroxamic acids and their use as protease inhibitors” (priority 2002, published 2005).

The target of one experiment is T1, MMP-14 (Homo sapiens, UniProt P50281).
T1 construct: The catalytic domain enzyme was expressed in E. coli inclusion bodies, solubilized in urea; made in house
The experiment can be described thus: In vitro MMP inhibition, Ki determination (fluorogenic substrate II). It counts as biochemical. Conditions: read-out: MMP-14 Ki. The procedure, abridged: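 Apparent Ki was fitted with Morrison's equation from reaction rates at a single low enzyme level. Enzyme was APMA- or trypsin-activated refolded MMP-14 catalytic domain, buffered at pH 7.5 with 10 mM CaCl2.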

The target in another experiment is T2, MMP-13 (Homo sapiens, UniProt P45452).
T2 construct: made in house; host or cells: baculovirus / insect cells
Described as above. It is filed as biochemical. Conditions: read-out: MMP-13 Ki. An outline of the steps:
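Room-temperature, 1 h incubation of APMA-activated recombinant human MMP-13 with 4 μM quenched substrate II (cleaved at Gly-Leu) in pH 7.5 Tris/NaCl/CaCl2 buffer. Inhibition appears as a slowed rise in 330/420 nm fluorescence. Single low enzyme and substrate levels were used for Ki.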

The mark [1] stands for this setting: human recombinant enzyme (catalytic domain), 4 μM substrate II, room temperature, 1 hr.
Setting [2] is: human recombinant enzyme, 4 μM substrate II, room temperature, 1 hr.

Where a name gives a salt, the structure may show the parent alone. Read-outs that look alike come from different tables or passages of the source. Where only a bound is given, the exact number is not on record here.

Usually Ki stands for a measure of affinity in units of concentration, obtained from inhibition or displacement. As to `O=C(NO)C1(S(=O)(=O)N2CCC(c3ccc(OCC(F)(F)F)cc3)CC2)CCN(C2CC2)CC1` [Example 25, 1-cyclopropyl-N-hydroxy-4-({4-[4-(2,2,2-trifluoroethoxy)phenyl]piperidin-1-yl}sulfonyl)piperidine-4-carboxamide Hydrochloride], the Ki on MMP-14 (setting [1]) was 5380 nM; at MMP-13 (setting [2]), 0.97 nM.
Take `CC(C)CCc1ccc(N2CCN(S(=O)(=O)C3(C(=O)NO)CCOCC3)CC2)nc1` [Example 133]: the Ki at MMP-14 (value not in parenthesis) stood at 2120 nM; at MMP-13 (value not in parenthesis) it was 0.227 nM.
The matching figures for `CCCCOc1ccc(N2CCN(S(=O)(=O)C3(C(=O)NO)CCN(C(=O)OCC(F)(F)F)CC3)CC2)cc1` [Example 115]: over 10000 nM and 1.17 nM.
The matching figures for `O=C(NO)C1(S(=O)(=O)N2CCN(c3ncc(Br)cn3)CC2)CCOCC1` [Example 103]: 227 nM and 3.48 nM.
Taken in the same sequence, the figures for `CCCCCCCCCc1cnc(N2CCN(S(=O)(=O)C3(C(=O)NO)CCOCC3)CC2)nc1` [Example 110] were over 10000 nM and 3.23 nM.
Take `COCCOc1ccc(N2CCN(S(=O)(=O)C3(C(=O)NO)CCOCC3)CC2)cc1` [Example 14, N-hydroxy-4-({4-[4-(2-methoxyethoxy)phenyl]piperazin-1-yl}sulfonyl)tetrahydro-2H-pyran-4-carboxamide Hydrochloride]: the Ki at MMP-14 (setting [1]) came out at 9170 nM; at MMP-13 (setting [2]), 2.67 nM.
As to `O=C(c1cccnc1)N1CCC(C(=O)NO)(S(=O)(=O)N2CCN(c3ccc(OCCCC(F)(F)F)cc3)CC2)CC1` [Example 122], the Ki amounted to 3090 nM on MMP-14 (value not in parenthesis) and 0.03 nM at MMP-13 (value not in parenthesis).
The matching figures for `CCCCOc1ccc(N2CCN(S(=O)(=O)C3(C(=O)NO)CCN(c4ccc(C)cn4)CC3)CC2)cc1` [Example 125]: 2760 nM and 1.67 nM.
Taken in the same sequence, the figures for `CCCCOc1ccc(N2CCN(S(=O)(=O)C3(C(=O)NO)CCN(c4ccc(OC)nc4)CC3)CC2)cc1` [Example 142] were 2630 nM and 0.505 nM.
